Results: paper PMC10178562, “Synthesis and Characterisation of Fluorescent Novel Pt(II) Cyclometallated Complexes with Anticancer Activity” (International Journal of Molecular Sciences, 2023)

Columns and labels:
[1] = Lipophilicity by RP-HPLC (log Kw); format: physicochemical; conditions: isocratic 70 to 90% solvent B
Protocol: Lipophilicity was calculated using a RP-HPLC method to determine log Kw, whereby a stock solution was injected at different isocratic ratios ranging from 70 to 90% solvent B (organic) at a flow rate of 1 mL min^−1. These experiments were undertaken on an Agilent Technologies 1260 Infinity machine equipped with a Phenomenex Onyx™ Monolithic C18 reverse phase column (100 × 4.6 mm, 130 Å). The mobile phase comprised 0.06% TFA in water (solvent A) and 0.06% TFA in ACN:H2O (90:10, solvent B). The dead zero volume time was determined using potassium iodide as an external dead volume marker, further details are provided in the Supplementary Materials.

calf thymus DNA (ctDNA) [2] = assay: Fluorescent intercalator displacement (FID) assay, EtBr-saturated ctDNA; format: binding; parameters: Kq (bimolecular quenching constant) / KSV (Stern–Volmer quenching constant): unit not given here; conditions: buffer pH 7.0
Protocol: To investigate the potential mechanisms of action of complexes 1–3, fluorescent intercalator displacement (FID) experiments and DNA binding experiments utilizing the innate fluorescence were undertaken. For FID experiments, the concentration of a fluorescent intercalator, in this case ethidium bromide (EtBr), that is displaced by the complex under investigation is determined. In a solution of calf-thymus DNA (ctDNA) where is saturated with EtBr, the change in fluorescence is monitored as the complex is titrated into this solution. Once the decrease in fluorescence has stopped, the concentration of the complex allows us to calculate the stoichiometric point of binding, the change in fluorescence at the point of binding (ΔFsat), the binding coefficient (Ka), bimolecular quenching constant (Kq), Stern–Volmer quenching constant (Ksv), the binding constant for fluorescence (KF), and the molar equivalents of CMC (n) at the point of intersection is the experimental stoichiometry of binding. (1) [ctDNA]Tn−∆Fx/∆Fsat=[CMC] (2) ∆Fx/∆Fsat1/n=fraction of ctDNA−CMC complex (3) 1−∆Fx/∆Fsat1/n=fraction free CMC
The fluorescence at 601 nm for each titration was plotted, and the KF and n could be calculated from the intercept and slope, respectively. (4) F0/F=1+Kqτ0CMC=1+KSV[CMC] where F0 is the fluorescence of the binding site in the absence of quencher (CMC), F is the fluorescence of the site containing the CMC, and t0 is the lifetime of the chromophore in the absence of the quencher (Ɛ476 = 5680 for ethidium-bound DNA).
A plot of F0/F against [CMC] using experimental values allows for the determination of Kq and KSV from the slope. (5) log10F0−F/F=nlog10CMC+log10KF where n is the number of ethidium ligands that are displaced per CMC. […] A plot of log10[(F0 − F)/F)] against log10[CMC] is used to determine KF and n from the intercept and slope, respectively. Experiments were performed in triplicate for each CMC.
Fluorescent intercalator displacement (FID) assays were obtained using the same instrument and by using 10 mm quartz cells. Stock solutions CMCs 1–3 (30 µM) were titrated into a solution of […] ethidium bromide, 150 µM ctDNA in a 40 mM K2HPO4/KH2PO, and 10 mM KCl buffer at pH 7.0. The fluorescence was measured from 550 to 750 nm excited at 480 nm and inverting 4 times and waiting 3 min between the addition of ctDNA and scan time to allow adequate time for the CMCs to interact with the DNA.

calf thymus DNA (ctDNA) [3] = assay: Direct ctDNA binding by inherent fluorescence (Benesi–Hildebrand); conditions: inherent fluorescence method, 10 µM CMC, buffer pH 7.0
Protocol: ctDNA experiments utilising the inherent fluorescence of the complexes were completed in addition to the FID experiments. […] The values of Ka and n for the compounds are listed in Table 4, where R^2 is the linear correlation coefficient for Ka.
The direct fluorescent measurements of DNA binding constants were also obtained with the same fluorimeter using 10 mm path length quartz cells. A 0.065 M stock solution of ctDNA was titrated into a 10 µM solution of CMCs 1–3 in a 40 mM K2HPO4/KH2PO, 10 mM KCl buffer at pH 7.0. The fluorescence was measured from 550 to 750 nm excited at 320 nm inverting 4 times and waiting 3 min between the addition of ctDNA and scan time to allow adequate time for the CMCs to interact with the DNA.

HT29 Colon = assay: MTT cytotoxicity HT29; format: cell-based; conditions: read-out: GI50 Concentration That Inhibits Cell Growth by 50%, 72 h
Protocol: (§1) Cytotoxicity assay studies were performed at Calvary Mater Newcastle Hospital, Waratah, NSW, Australia. In vitro studies were performed according to described methods. Complexes were prepared in DMSO as stock treatment (30 mM) solutions and stored at −20 °C. All cell lines were cultured in a humidified atmosphere with 5% CO2 at 37 °C and maintained in Dulbecco’s modified eagle’s medium (DMEM; Trace Biosciences, Melbourne, Australia) supplemented with 10% foetal bovine serum, sodium bicarbonate (10 mM), penicillin (100 IU mL^−1), streptomycin (100 μg mL^−1), and L-glutamine (4 mM). The non-cancer MCF10A cell line was cultured in DMEM.F12 (1:1) cell culture media (Composition in SI). Cytotoxicity was determined by plating cells in duplicate in 100 μL medium at a density of 2500–4000 cells per well in 96-well plates. After 24 h, when cells were in logarithmic growth, media (100 μL) with or without the test agent were added to each well (day 0). After 72 h of exposure, growth inhibitory effects were evaluated by MTT (3-[4,5-dimethylthiazol-2-yl]-2,5-diphenyltetrazolium bromide) assay, and absorbance was read at 540 nm. […] These calculations were based on the difference between the optical density values on day 0 and those at the end of drug exposure.

U87 Glioblastoma = assay: MTT cytotoxicity U87; format: cell-based; conditions: read-out: GI50 Concentration That Inhibits Cell Growth by 50%, 72 h
Protocol: as §1

MCF-7 Breast = assay: MTT cytotoxicity MCF-7; format: cell-based; conditions: for GI50: read-out: GI50 Concentration That Inhibits Cell Growth by 50%, MCF-7 Breast, 72 h, MTT
Protocol: as §1

A2780 Ovarian = assay: MTT cytotoxicity A2780; format: cell-based; conditions: read-out: GI50 Concentration That Inhibits Cell Growth by 50%, 72 h
Protocol: as §1

H460 Lung = assay: MTT cytotoxicity H460; format: cell-based; conditions: read-out: GI50 Concentration That Inhibits Cell Growth by 50%, 72 h
Protocol: as §1

A431 Skin = assay: MTT cytotoxicity A431; format: cell-based; conditions: read-out: GI50 Concentration That Inhibits Cell Growth by 50%, 72 h
Protocol: as §1

Du145 Prostate = assay: MTT cytotoxicity Du145; format: cell-based; conditions: read-out: GI50 Concentration That Inhibits Cell Growth by 50%, 72 h
Protocol: as §1

BE2-C Neuroblastoma = assay: MTT cytotoxicity BE2-C; format: cell-based; conditions: read-out: GI50 Concentration That Inhibits Cell Growth by 50%, 72 h
Protocol: as §1

SJ-G2 Glioblastoma = assay: MTT cytotoxicity SJ-G2; format: cell-based; conditions: read-out: GI50 Concentration That Inhibits Cell Growth by 50%, 72 h
Protocol: as §1

MIA Pancreas = assay: MTT cytotoxicity MIA; format: cell-based; conditions: read-out: GI50 Concentration That Inhibits Cell Growth by 50%, 72 h
Protocol: as §1

MCF10A Breast (normal) = assay: MTT cytotoxicity MCF10A (non-cancer); format: cell-based; conditions: read-out: GI50 Concentration That Inhibits Cell Growth by 50%, 72 h
Protocol: as §1

ADDP Cis Res Ovarian = assay: MTT cytotoxicity ADDP; format: cell-based; conditions: read-out: GI50 Concentration That Inhibits Cell Growth by 50%, 72 h
Protocol: as §1

Row | Molecule | KSV (Stern–Volmer quenching constant) (calf thymus DNA (ctDNA) [2]) | Ka (binding coefficient) (calf thymus DNA (ctDNA) [2]) | Kf (binding constant for fluorescence) (calf thymus DNA (ctDNA) [2]) | Kq (bimolecular quenching constant) (calf thymus DNA (ctDNA) [2]) | Point of Experimental Stoichiometry of Binding (calf thymus DNA (ctDNA) [2]) | n (number of ethidium ligands displaced per CMC) (calf thymus DNA (ctDNA) [2]) | ΔFsat (change in fluorescence at the point of binding) (calf thymus DNA (ctDNA) [2]) | Ka (binding constant) (calf thymus DNA (ctDNA) [3]) | GI50 (HT29 Colon) | GI50 (U87 Glioblastoma) | GI50 (MCF-7 Breast) | GI50 (A2780 Ovarian) | GI50 (H460 Lung) | GI50 (A431 Skin) | GI50 (Du145 Prostate) | GI50 (BE2-C Neuroblastoma) | GI50 (SJ-G2 Glioblastoma) | GI50 (MIA Pancreas) | GI50 (MCF10A Breast (normal)) | GI50 (ADDP Cis Res Ovarian) | other results
1 | [Pt(DiBequ)(SSDACH)]+ [Complex 3a] | 1.342 | 1.07 × 10^4 | 3.18 | 0.237 | 2.38 | 0.579 | 91.83 | 1.11 × 10^4 | 16 µM | 16 ± 0.6 µM | 15 ± 0.5 µM | 12 ± 0.9 µM | 16 ± 0.9 µM | 14 ± 0.6 µM | 23 ± 2.1 µM | 9 ± 1.3 µM | 17 ± 0.6 µM | 15 ± 0.7 µM | 16 ± 0.6 µM | 15 µM | Lipophilicity × 10^−2 (log Kw) [1]: 0.77 ± 0.032 × 10^−2; SI = GI50 for normal cells/GI50 for cancer cells (MCF10A/MCF-7) (MCF-7 Breast): 1.07
2 | N.N.[Cl][Pt][Cl] [Cisplatin, cisplatin, reference compound] | – | – | – | – | – | – | – | – | 11.3 ± 1.9 µM | 3.8 ± 1.1 µM | 6.5 ± 0.8 µM | 1 ± 0.1 µM | 0.9 ± 0.2 µM | 2.4 ± 0.3 µM | 1.2 ± 0.1 µM | 1.9 ± 0.2 µM | 0.4 ± 0.1 µM | 7.5 ± 1.3 µM | – | – | –
3 | [Pt(Bequ)(RRDACH)]+ [Complex 2b] | 1.662 | 1.59 × 10^4 | 3.78 | 0.271 | 2.47 | 0.668 | 89.01 | 1.39 × 10^4 | 30 ± 2.3 µM | 4.3 ± 0.3 µM | 7.7 ± 2 µM | 5 ± 0.3 µM | 8.1 ± 1 µM | 3.4 ± 0.3 µM | 20 ± 2.7 µM | 48 ± 1.7 µM | 10 ± 2.2 µM | 8.1 ± 1.6 µM | 10.3 ± 1.9 µM | 19 ± 3 µM | Lipophilicity × 10^−2 (log Kw) [1]: 3.97 ± 0.053 × 10^−2; SI = GI50 for normal cells/GI50 for cancer cells (MCF10A/MCF-7) (MCF-7 Breast): 1.33
4 | [Pt(Bequ)( SSDACH)]+ [Complex 2a] | 1.339 | 1.58 × 10^4 | 3.25 | 0.241 | 2.52 | 0.592 | 89.29 | 1.11 × 10^4 | 16 ± 1.3 µM | 8.6 ± 1.1 µM | 5.4 ± 1 µM | 18 ± 2.3 µM | 11 ± 1.5 µM | 12 ± 2.4 µM | 26 ± 2 µM | 23 ± 3.5 µM | 13 ± 2.2 µM | 20 ± 3 µM | 20 ± 1 µM | 14 ± 0.3 µM | Lipophilicity × 10^−2 (log Kw) [1]: 2.06 ± 0.097 × 10^−2
5 | [Pt(DiBequ)(RRDACH)]+ [Complex 3b] | 1.727 | 3.98 × 10^4 | 4.22 | 0.297 | 2.62 | 0.757 | 82.38 | 3.68 × 10^4 | 16 ± 0.3 µM | 4.1 ± 0.3 µM | 4.2 ± 0.3 µM | 4.5 ± 0.3 µM | 8.2 ± 2.9 µM | 3.9 ± 0.4 µM | 16 ± 1.5 µM | 33 ± 1.2 µM | 10.1 ± 2.6 µM | 12.5 ± 2 µM | 8.5 ± 1.4 µM | 6.9 ± 0.4 µM | Lipophilicity × 10^−2 (log Kw) [1]: 0.4 ± 0.029 × 10^−2
6 | [Pt(Pepy)(RRDACH)]+ [Complex 1b] | 1.957 | 1.58 × 10^4 | 4.23 | 0.328 | 2.65 | 0.757 | 86.38 | 1.46 × 10^4 | 41 ± 2.7 µM | 23 ± 2.2 µM | 13 ± 1.7 µM | 31 ± 2.9 µM | 25 ± 2.9 µM | 29 ± 2.6 µM | 41 ± 0.9 µM | 38 ± 4.6 µM | 20 ± 4.8 µM | 41 ± 2 µM | 32 ± 2.7 µM | 26 ± 0.6 µM | Lipophilicity × 10^−2 (log Kw) [1]: 1.52 ± 0.063 × 10^−2
7 | Cc1c(C)c2cccnc2c2ncccc12.N[C@H]1CCCC[C@@H]1N.[Pt] [Complex 56MESS, reference compound] | – | – | – | – | – | – | – | – | – | 0.076 ± 0.014 µM | 0.05 ± 0.02 µM | 0.03 ± 0.004 µM | 0.037 ± 0.009 µM | 0.051 ± 0.021 µM | 0.007 ± 0.002 µM | 0.1 ± 0.016 µM | 0.074 ± 0.018 µM | 0.015 ± 0.002 µM | 0.032 ± 0.007 µM | – | SI = GI50 for normal cells/GI50 for cancer cells (MCF10A/MCF-7) (MCF-7 Breast): 0.64
8 | [Pt(Pepy)(SSDACH)]+ [Complex 1a] | 1.988 | 2.75 × 10^4 | 4.35 | 0.329 | 2.84 | 0.778 | 83.82 | 2.20 × 10^4 | 13 ± 1 µM | 5.3 ± 0.3 µM | 8.4 ± 2 µM | 12 ± 0.7 µM | 5.8 ± 0.4 µM | 4.2 ± 0.5 µM | 9 ± 2 µM | 34 ± 7.5 µM | 11 ± 0.7 µM | 8 ± 1.6 µM | 6.4 ± 0.5 µM | 5.1 ± 0.3 µM | SI = GI50 for normal cells/GI50 for cancer cells (MCF10A/MCF-7) (MCF-7 Breast): 0.76
